From article PMC11444200, “In Vitro Evaluation of Antipseudomonal Activity and Safety Profile of Peptidomimetic Furin Inhibitors” (Biomedicines, 2024)

Tests used:
IPEC-J2 cells [1] = test: Amplex Red extracellular H2O2 assay in IPEC-J2 cells; assay type: cell-based, porcine; conditions: 50 or 100 μM, 24 h
Description: (§1) The cell line used for the experiments was the IPEC-J2 from the jejunum of porcine. The IPEC-J2 epithelial cell line was a kind gift from Dr. Jody Gookin (Department of Clinical Sciences, College of Veterinary Medicine, North Carolina State University, Raleigh, NC, USA). The cell monolayers were maintained in 75 cm^2 cell culture flasks with filtered caps (Orange Scientific, Braine-l’Alleud, Belgium) at 37 °C in a humidified atmosphere containing 5% CO2. The culture medium contained 50% Dulbecco’s modified Eagle’s medium (DMEM) and 50% Ham’s F12 Nutrient Mixture (Merck, Darmstadt, Germany) supplemented with 1.5 mmol/L HEPES, 5% fetal bovine serum (FBS) (Biocenter, Budapest, Hungary), 1% insulin/transferrin/sodium selenite medium supplement, 5 ng/mL epidermal growth factor (EGF), and 1% penicillin/streptomycin (all purchased from Invitrogen, Thermo Fisher Scientific, Waltham, MA, USA). Cells were used between passages 40 and 55. The media were changed every second day. Cells were seeded onto 96- and 24-well polystyrene cell culture plates for the cell viability and the Amplex Red/DCFH-DA assay, respectively. […]

[2] = tested on: human airway Calu-3 cells; conditions: cited from earlier work
CYP3A4 [3] = molecular target: T1, CYP3A4 (Homo sapiens, UniProt P08684); set-up: method as in PMID 35594709; conditions: PHH, previous studies; cited from earlier work
T1 sequence (P08684 whole entry): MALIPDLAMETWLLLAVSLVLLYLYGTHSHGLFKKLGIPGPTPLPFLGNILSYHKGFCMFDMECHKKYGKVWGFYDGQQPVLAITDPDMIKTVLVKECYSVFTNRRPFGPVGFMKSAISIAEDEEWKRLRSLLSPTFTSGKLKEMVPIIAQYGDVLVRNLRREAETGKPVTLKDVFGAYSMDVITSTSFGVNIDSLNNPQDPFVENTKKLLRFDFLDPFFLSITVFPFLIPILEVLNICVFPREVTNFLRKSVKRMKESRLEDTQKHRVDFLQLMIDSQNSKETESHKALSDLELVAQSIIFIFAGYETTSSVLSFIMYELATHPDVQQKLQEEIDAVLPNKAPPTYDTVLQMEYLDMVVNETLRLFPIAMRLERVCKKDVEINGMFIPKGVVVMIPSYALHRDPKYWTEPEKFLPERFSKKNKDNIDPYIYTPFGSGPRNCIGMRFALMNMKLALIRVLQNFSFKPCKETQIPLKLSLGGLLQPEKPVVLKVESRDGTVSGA

[4] = molecular target: T2, Human serum albumin (HSA) (Homo sapiens, UniProt P02768); conditions: same experimental model, earlier study; cited from earlier work
T2 construct: purchased Merck (Darmstadt, Germany) A1653
T2 sequence (P02768 25-609): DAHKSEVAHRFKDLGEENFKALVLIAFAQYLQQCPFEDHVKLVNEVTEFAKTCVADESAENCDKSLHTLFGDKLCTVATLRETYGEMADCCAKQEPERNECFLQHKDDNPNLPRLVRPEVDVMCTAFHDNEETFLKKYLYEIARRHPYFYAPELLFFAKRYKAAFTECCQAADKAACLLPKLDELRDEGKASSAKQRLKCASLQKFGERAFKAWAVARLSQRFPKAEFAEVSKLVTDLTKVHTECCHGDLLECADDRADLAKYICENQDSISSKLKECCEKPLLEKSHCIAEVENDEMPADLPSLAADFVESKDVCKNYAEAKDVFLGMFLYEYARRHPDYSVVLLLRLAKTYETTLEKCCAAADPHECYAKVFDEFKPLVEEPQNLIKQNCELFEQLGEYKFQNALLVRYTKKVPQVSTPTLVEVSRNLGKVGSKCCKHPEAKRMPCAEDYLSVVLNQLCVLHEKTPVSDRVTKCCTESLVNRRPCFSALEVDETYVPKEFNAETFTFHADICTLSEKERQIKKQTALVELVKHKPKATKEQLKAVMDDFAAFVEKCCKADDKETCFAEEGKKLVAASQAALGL

IPEC-J2 cells [5] = test: DCFH-DA intracellular ROS assay in IPEC-J2 cells; assay type: cell-based, porcine; conditions: 50 and 100 μM, 24 h
Description: as §1, with “55.” for “55. The media were changed every second day. Cells were seeded onto 96- and 24-well polystyrene cell culture plates for the cell viability and the Amplex Red/DCFH-DA assay, respectively.”
The ability of inhibitors MI-1851 and MI-2415 to induce oxidative stress (ROS) within IPEC-J2 as well as of compound MI-2415 within PHHs was investigated with 2,7-dichloro-dihydro-fluorescein diacetate (DCFH2-DA). […] A Victor X2 2030 (Perkin Elmer, Waltham, MA, USA) was used to determine the fluorescence values of the samples (excitation wavelength: 485 nm, emission wavelength: 535 nm), which are directly proportional to the ROS generation.

[6] = tested on: primary human hepatocytes (PHH); set-up: method as in PMID 35594709; conditions: PHHs; cited from earlier work
CYP3A4 [7] = molecular target: T1, CYP3A4; test: microsomal CYP3A4 activity assay (human hepatic microsomes); assay type: in vitro ADME; set-up: human hepatic microsomes (Gibco, Biocenter, Szeged, Hungary); tissue Gibco (Biocenter, Szeged, Hungary); host or cells: human liver microsomes; conditions: for microsomal CYP3A4 function: 25, 50 and 100 µM; for inhibition at 100 µM: human, read-out: CYP3A4 inhibitory activities
Description: To investigate the effects of inhibitor MI-2415 on CYP3A4 activities, a P450-Glo CYP450 assay (Promega, Madison, WI, USA) was used. […] This luminescent method involves adding a cell-permeable Luciferin-IPA at 3 µM, which was used in 300 µL phenol-red free Williams’ Medium E in each well in the CYP3A4 assay with an incubation time of 1 h. The luminescence activity of the product in the presence of the luciferin detection reagent was proportional to the CYP activity. For the microsomal CYP3A4 assay of inhibitors MI-1851 and MI-2415 at 25, 50, and 100 µM (n = 3), BioVision CYP assays (BioVision, Inc., Kampenhout, Belgium) were used according to the manufacturer’s instructions. The protein content of human hepatic microsomes (Gibco, Biocenter, Szeged, Hungary) was determined by the bicinchoninic acid protein assay kit (Pierce BCA kit, Thermo Fisher Scientific, Waltham, MA, USA) and a 100 µg/well protein was used in each study. […] A Victor X2 2030 fluorescence spectrometer (Perkin Elmer, Waltham, MA, USA) was used to detect the fluorescence intensities of the microsomal CYP3A4 function at wavelengths of λex/em = 535/587 nm and it was also applied to detect the luminescence signals of the cell-based CYP3A4 activity assay.

[8] = tested on: primary human hepatocytes (PHH); test: Amplex Red extracellular H2O2 assay in primary human hepatocytes; assay type: cell-based; conditions: 50 µM and 100 µM, 24 h
Description: PHHs were purchased from Primacyt Cell Culture Technology GmbH (Schwerin, Germany). Hepatocytes were thawed using hepatocyte recovery medium (Primacyt, Schwerin, Germany) and cells were centrifuged (10 min, 100× g, 20 °C) to remove supernatants. Cells were incubated with 5% FBS-containing plating medium for 6 h, then with FBS-free maintenance medium at 37 °C with 5% CO2 (both media were obtained from Primacyt, Schwerin, Germany) on Matrigel-coated membrane inserts (Costar Transwell-COL PTFE permeable supports, 6.5 mm inserts, 0.4 µm pore size, 24-well plate, Corning Incorporated, Kennebunk, ME, USA) for the CCK-8 and Amplex Red procedures. Maintenance medium without FBS was replaced every 24 h and the cells were incubated.
To evaluate the cellular responses of IPEC-J2 to the inhibitors MI-1851 and MI-2415, and those of PHHs to MI-2415, at different concentration levels, the Amplex Red hydrogen peroxide assay kit (Invitrogen, Molecular Probes, Budapest, Hungary) in combination with horseradish peroxidase has been used. In the presence of hydrogen peroxide (in 1:1 stoichiometry), Amplex Red produces a red fluorescent oxidation product, resorufin. The IPEC-J2 cells and PHHs were treated for 24 h with the inhibitor(s) at different concentration levels (50 and 100 μM). […]

Row | SMILES | extracellular H2O2 production (redox balance) in IPEC-J2 cells (IPEC-J2 cells [1]) | non-cytotoxic concentration [2] | concentration at which significant inhibition of CYP3A4 was already observed (CYP3A4 [3]) | effect on emission signal of HSA [4] | intracellular ROS levels in IPEC-J2 cells (IPEC-J2 cells [5]) | non-cytotoxic concentration [6] | microsomal CYP3A4 function (CYP3A4 [7]) | inhibition at 100 µM (CYP3A4 [7]) | extracellular H2O2 production in PHHs [8] | concentration from which CYP3A4 inhibition is significant (CYP3A4 [7])
1 | CC(C)(C)[C@H](NC(=O)[C@H](CCONC(=N)N)NC(=O)Cc1ccc(CNC(=N)N)cc1)C(=O)N[C@@H](CCONC(=N)N)C(=O)NCc1ccc(C(=N)N)cc1 [MI-1851] | slightly, but statistically not significantly | up to 50 µM | 20 µM | did not affect the emission signal of HSA | no significant alterations in intracellular ROS levels | up to 100 µM | suppressed CYP3A4 function in a concentration-dependent manner | 30 to 50% | – | –
2 | CC(C)(C)[C@H](NC(=O)[C@H](CCONC(=N)N)NC(=O)Cc1ccc(CNC(=N)N)cc1)C(=O)N[C@@H](CCONC(=N)N)C(=O)NCc1ccc2c(c1)CN=C2N [MI-2415] | slightly, but statistically not significantly | – | – | – | no significant alterations in intracellular ROS levels | – | reduce CYP3A4 activity but only from 50 µM | 30 to 50% | did not cause a redox imbalance | 50 µM
